The supplement of paper PMC8671470

Tests used:
Settings in all cases: 72 h
[1] = test system: BV-173
Outline: (§1)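 Seeded in RPMI 1640 at densities within the linear growth range, fifteen myeloid leukaemia cell lines were dispensed into 384-well plates with acoustically pre-printed compounds spanning five tenfold doses from 1 to 10,000 nM, in duplicate. The plates were kept for 72 h at 37 °C in 5% CO2 before luminescent ATP viability was measured and normalised to vehicle and to a positive control at 10 µM. Curves were fitted with a four-parameter log-logistic model. The IC50 was taken from those curves.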

[2] = test system: HEL
Outline: as §1

[3] = test system: HL-60
Outline: as §1

[4] = test system: K-562
Outline: as §1

[5] = test system: KCL-22
Outline: as §1

[6] = test system: KG-1
Outline: as §1

[7] = test system: KU-812
Outline: as §1

[8] = test system: LAMA-84
Outline: as §1

[9] = test system: ML-2
Outline: as §1

[10] = test system: MOLM-13
Outline: as §1

[11] = test system: MV4-11
Outline: as §1

[12] = test system: Mono-Mac-6
Outline: as §1

[13] = test system: NOMO-1
Outline: as §1

[14] = test system: SHI-1
Outline: as §1

[15] = test system: THP-1
Outline: as §1

[16] = test system: BV-173; experiment: cell viability (% survival relative to DMSO control, bortezomib = 0%); higher = less cytotoxic
Outline: (§2)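 Fifteen myeloid leukaemia cell lines were exposed to compounds at 1, 10, 100, 1000 or 10000 nM in 384-well plates for 72 h at 37 °C and 5% CO2. Viability was read by CellTiter-Glo luminescence and normalised, with vehicle as 100% and a 10 µM positive control as 0%. Values are percent survival averaged over duplicates.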

[17] = test system: HEL; experiment: as above
Outline: as §2

[18] = test system: HL-60; experiment: as above
Outline: as §2

[19] = test system: KCL-22; experiment: as above
Outline: as §2

[20] = test system: KG-1; experiment: as above
Outline: as §2

[21] = test system: KU-812; experiment: as above
Outline: as §2

[22] = test system: LAMA-84; experiment: as above
Outline: as §2

[23] = test system: ML-2; experiment: as above
Outline: as §2

[24] = test system: MOLM-13; experiment: as above
Outline: as §2

[25] = test system: MV4-11; experiment: as above
Outline: as §2

[26] = test system: Mono-Mac-6; experiment: as above
Outline: as §2

[27] = test system: NOMO-1; experiment: as above
Outline: as §2

[28] = test system: SHI-1; experiment: as above
Outline: as §2

[29] = test system: THP-1; experiment: as above
Outline: as §2

[30] = test system: HL-60; experiment: area under dose-response curve (viability, 1 nM-10 uM) (fraction (0-1)); higher = more sensitive
Outline: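 In 384-well plates, the full library was rescreened in duplicate on HL-60 cells in RPMI 1640 with 10% FBS, at 1–10,000 nM in five tenfold concentrations, for 72 h at 37 °C, 5% CO2. Each run also held DMSO or 100 nM of one of three metabolic inhibitors. Viability was measured by CellTiter-Glo and normalised to DMSO wells and to wells with proteasome inhibitor, present at 10 μM. Any area under the curve comes from four-parameter log-logistic fitting with drc and PharmacoGx.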

COc1ccc2c(C(=S)N(C)CC(=O)O)cccc2c1C(F)(F)F [Tolrestat]
Settings | IC50 (cell viability) [µM]
[1] | > 10
[2] | > 10
[3] | > 10
[4] | > 10
[5] | > 10
[6] | > 10
[7] | > 10
[8] | > 10
[9] | > 10
[10] | > 10
[11] | > 10
[12] | > 10
[13] | > 10
[14] | > 10
[15] | > 10

Settings | area under dose-response curve, co-treatment: AZD3965 100 nM | area under dose-response curve, co-treatment: DMSO vehicle | area under dose-response curve, co-treatment: GSK2194069 100 nM | area under dose-response curve, co-treatment: pictilisib 100 nM | cell viability, 1 nM [%] | cell viability, 10 nM [%] | cell viability, 100 nM [%] | cell viability, 1000 nM [%] | cell viability, 10000 nM [%]
[16] | – | – | – | – | 84.3 | 108 | 86.1 | 88.5 | 101
[17] | – | – | – | – | 91.2 | 98.9 | 95 | 93 | 101
[18] | – | – | – | – | 107 | 104 | 122 | 49.1 | 101
[19] | – | – | – | – | 94.8 | 103 | 105 | 106 | 106
[20] | – | – | – | – | 91.8 | 95.3 | 95.6 | 93.5 | 101
[21] | – | – | – | – | 88.6 | 118 | 99.8 | 90.8 | 104
[22] | – | – | – | – | 97.7 | 106 | 100 | 95.6 | 98.6
[23] | – | – | – | – | 90.2 | 99 | 103 | 111 | 97.8
[24] | – | – | – | – | 105 | 149 | 63.3 | 105 | 88.5
[25] | – | – | – | – | 97.4 | 109 | 98.2 | 101 | 86.3
[26] | – | – | – | – | 86.5 | 113 | 94.1 | 113 | 95.4
[27] | – | – | – | – | 97.2 | 107 | 106 | 118 | 95.5
[28] | – | – | – | – | 98.6 | 104 | 88.1 | 108 | 101
[29] | – | – | – | – | 93.9 | 94.8 | 103 | 104 | 94.4
[30] | < 0.0301 | < 0.0301 | < 0.0301 | < 0.0301 | – | – | – | – | –

O=c1cc(-c2ccccc2)oc2cc(O)c(O)c(O)c12 [Baicalein]
Settings | IC50 (cell viability) [µM]
[1] | > 10
[2] | > 10
[3] | 4.39
[4] | 9.24
[5] | > 10
[6] | 6.35
[7] | > 10
[8] | > 10
[9] | 8.18
[10] | > 10
[11] | > 10
[12] | > 10
[13] | > 10
[14] | > 10
[15] | > 10

Settings | area under dose-response curve, co-treatment: AZD3965 100 nM | area under dose-response curve, co-treatment: DMSO vehicle | area under dose-response curve, co-treatment: GSK2194069 100 nM | area under dose-response curve, co-treatment: pictilisib 100 nM | cell viability, 1 nM [%] | cell viability, 10 nM [%] | cell viability, 100 nM [%] | cell viability, 1000 nM [%] | cell viability, 10000 nM [%]
[16] | – | – | – | – | 100 | 99.5 | 96.2 | 154 | 64.2
[17] | – | – | – | – | 108 | 88.2 | 109 | 137 | 75.4
[18] | – | – | – | – | 110 | 86.7 | 114 | 85.3 | 43
[19] | – | – | – | – | 95 | 70.2 | 113 | 102 | 49.3
[20] | – | – | – | – | 96.9 | 96.7 | 112 | 87.8 | 51
[21] | – | – | – | – | 93.5 | 94.1 | 99.4 | 108 | 61.4
[22] | – | – | – | – | 98.2 | 99.6 | 94.4 | 104 | 75
[23] | – | – | – | – | 98.9 | 93.2 | 87.5 | 97.9 | 37.7
[24] | – | – | – | – | 97.4 | 72 | 132 | 92.1 | 69.3
[25] | – | – | – | – | 97.8 | 102 | 98.7 | 113 | 54
[26] | – | – | – | – | 103 | 102 | 99.2 | 117 | 75.4
[27] | – | – | – | – | 99.2 | 91.3 | 104 | 123 | 98.2
[28] | – | – | – | – | 109 | 92 | 126 | 97.2 | 82.8
[29] | – | – | – | – | 99.4 | 95.6 | 93.5 | 92.5 | 85.9
[30] | < 0.0301 | < 0.0301 | < 0.0301 | < 0.0301 | – | – | – | – | –
